Test results taken from the supplement of paper PMC10307832.

How the values were obtained:
Assay in all cases: relative viability (nuclei count vs DMSO), 5 days (fraction); higher = more cells survive
[1] = compound: CCC1=CN=CN=C1N2CCN(CC2)CC3=NC4=C(N3)C=C(C=C4)C(F)(F)F + NC(=O)Nc1cc(-c2cccc(F)c2)sc1C(=O)N[C@H]1CCCNC1 [AZD7762] (partner 0.2 µM)
Summary of the method: (§1)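 Values are medians from duplicate plates. Each reflects relative viability, defined as the nuclei count of treated wells over that of vehicle wells. Lung cancer cell lines in 1536-well plates were pin-tool dosed one day after seeding with one drug alone or with a fixed anchor-drug dose plus five library-drug doses (not always all listed) in √10 steps, then fixed, stained and imaged at 4× after 5 days.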

[2] = compound: CCn1c(-c2nonc2N)nc2cnc(Oc3cccc(NC(=O)c4ccc(OCCN5CCOCC5)cc4)c3)cc21 + CC(=O)c1c(C)c2cnc(Nc3ccc(N4CCNCC4)cn3)nc2n(C2CCCC2)c1=O [Palbociclib] (partner 0.5 µM)
Summary of the method: as §1

[3] = compound: CCn1c(-c2nonc2N)nc2cnc(Oc3cccc(NC(=O)c4ccc(OCCN5CCOCC5)cc4)c3)cc21 + C[C@]1(O)C[C@@H](c2nc(-c3ccc4ccc(-c5ccccc5)nc4c3)c3c(N)nccn32)C1 [Linsitinib] (partner 1 µM)
Summary of the method: as §1

Mirin + Palbociclib = compound: N=C1NC(=O)/C(=C/c2ccc(O)cc2)S1 [Mirin] + CC(=O)c1c(C)c2cnc(Nc3ccc(N4CCNCC4)cn3)nc2n(C2CCCC2)c1=O [Palbociclib] (partner 0.5 µM)
Summary of the method: as §1

Cell Line	relative viability ([1]; first compound 0.04 µM)	relative viability ([1]; first compound 0.1265 µM)	relative viability ([1]; first compound 0.4 µM)	relative viability ([1]; first compound 1.265 µM)	relative viability ([1]; first compound 4 µM)	relative viability ([2]; first compound 0.04 µM)	relative viability ([2]; first compound 0.1265 µM)	relative viability ([2]; first compound 0.4 µM)	relative viability ([2]; first compound 1.265 µM)	relative viability ([2]; first compound 4 µM)	relative viability ([3]; first compound 0.04 µM)	relative viability ([3]; first compound 0.1265 µM)	relative viability ([3]; first compound 0.4 µM)	relative viability ([3]; first compound 1.265 µM)	relative viability ([3]; first compound 4 µM)	relative viability (Mirin + Palbociclib; first compound 0.25 µM)	relative viability (Mirin + Palbociclib; first compound 0.7906 µM)	relative viability (Mirin + Palbociclib; first compound 2.5 µM)	relative viability (Mirin + Palbociclib; first compound 7.906 µM)	relative viability (Mirin + Palbociclib; first compound 25 µM)
HARA	0.484	0.263	0.339	0.292	0.436	0.278	0.232	0.242	0.172	0.199	1.04	0.733	1	0.634	0.698	0.273	0.277	0.265	0.293	0.268
HCC-15	1.3	1.11	1.1	1.32	1.32	0.758	0.665	0.673	0.596	0.7	1.15	0.88	0.901	0.825	0.883	0.739	0.712	0.677	0.674	0.737
HCC-44	1.04	0.946	0.977	1.13	0.986	1.01	1.01	1.02	1.08	0.878	0.671	0.709	0.684	0.538	0.509	1	1.1	0.91	0.975	1.15
HCC-78	0.564	0.559	0.668	0.525	0.631	0.446	0.445	0.525	0.533	0.452	0.673	0.498	0.551	0.664	0.621	0.536	0.41	0.453	0.505	0.381
